Measured values taken from publication PMC7417534, “Cytochrome P450 inhibition potential and initial genotoxic evaluation of 14-O-[(4,6-diaminopyrimidine-2-yl)thioacetyl] mutilin” (Scientific Reports, 2020).

Columns and labels:
[1] = parameters: method as in PMID 30813235; conditions: rats, intravenous administration; cited from earlier work
CYP2D1 = target: T1, CYP2D1 (Rattus norvegicus, UniProt P10633); test: Cocktail CYP inhibition in rat liver microsomes, CYP2D1 (metoprolol); assay type: in vitro ADME; conditions: cocktail method, read-out: IC50 values, CYP2D1 in RLMs
T1 construct: containing 100 μL RLMs or HLMs; tissue Research Institute for Liver Diseases (Shanghai) Co., Ltd; host or cells: male SD rat liver microsomes
Description: (§1) We used the cocktail method to study the inhibition activities of DPTM against CYP enzymes in RLMs and HLMs with slight modification. DPTM (250 μmol) was dissolved in 1.25 mL methanol to a solution and then diluted with methanol and water to 2, 10, 20, 100, 200, 400, 1,000 and 2000 μM, respectively. The obtained serial dilutions (10 μL) were added to the incubation mixtures (200 μL total volume), containing 100 μL RLMs or HLMs (final concentration was 5 μg/μL, respectively), 10 μL glucose-6-phosphate (final concentration was 1 mM), 10 μL glucose-6-phosphate dehydrogenase (final concentration was 0.1 U/L), 20 μL potassium phosphate buffer (final concentration was 0.01 M) and 20 μL MgCl2 (final concentration was 2 mM), to give the final concentrations were 0.1, 0.5, 1, 5 10, 20, 50, and 100 μM, respectively. For the groups that in the absence of DPTM, 10 μL methanol (1%) replaced the DPTM and was added to the incubation mixtures. […] The final concentration of methanol in all the incubation mixtures, including the blank group, was […]. […] The determined metabolic substrates were used for calculating the relative enzyme activity (Erel) by the following formula: Erel (%) = Ci(n)/Ci(0) × 100%, in which Ci(n) was the determined metabolic substrates in the presence of varying concentrations of DPTM and Ci(0) was the determined metabolic substrates in the absence of DPTM. […]

CYP2D6 mRNA = CYP2D6 mRNA expression in Hep G2 cells (real-time PCR); assay type: cell-based, human; conditions: 12 h
Description: The logarithmic growth phase Hep G2 cells were seeded into 12-well plastic plates at a density of […]. After incubation at 37 °C under 5% CO2 for 24 h, the media were then replaced with 1 mL of serial dilutions of the DPTM (4.98, 0.16 and 0.08 mM) in fresh media. When cells were incubated for 2, 4 and 12 h at 37 °C under 5% CO2, the RNA was isolated using the Trizol reagent according to the manufacturer’s protocol. Total RNA (5 μL) was transcribed into cDNA by using the PrimeScript RT reagent Kit (Perfect Real Time). The obtained cDNA (5 μL) was added for 45 cycles of PCR amplification to detect the mRNA expression (the primers and sequences used herein were given in Table 3) using the ABI Villa TM7Dx real-time PCR system (Gaithersburg, USA). Glyceraldehyde-3-phosphate dehydrogenase (GAPDH) was used as reference gene. All reactions were performed in a final volume of 20 μL (10 μL of 2 × SYBR Green Real-time PCR Master Mix, 2 μL of cDNA and 2 μL of the primers and 6 μL DEPC water) and executed in triplicate.

Hep G2 cells = test: MTT cytotoxicity assay on Hep G2 cells; assay type: cell-based, human; conditions: Homo sapiens, HepG2, 24 h incubation, read-out: IC50 value, cell viability (MTT)
Description: (§2) Intrinsic toxicity of DPTM was conducted as described in the literature[36]–[38] with some modifications. […] After proliferating to logarithmic growth phase at 37 °C under 5% CO2, cells were seeded to a new 96-well plate with a density of […] and cultured for 24 h at the same condition. The media were replaced with 100 μL of serial dilutions of DPTM (10 mg DPTM was dissolved in 1 mL 1% DMSO to a solution and then diluted two-fold with distilled water to provide 19.91, 9.96, 4.98, 2.49, 1.25, 0.62, 0.31, 0.16 and 0.08 mM serial dilutions). The blank group only used 1% DMSO to replace the media. The obtained mixture was incubated for 24 h. After that, all media in cells were removed and 20 μL of MTT reagent was added for an additional 4 h. Then, supernatant fraction was removed and 100 μL dimethyl sulfoxide (DMSO) was added, followed by incubation at 37 °C for 15 min. The absorbance of each well was determined by a spectrophotometer at dual wavelengths of 570 and 279 nm for the background. The viability percentage was calculated by the following formula: cell viability % = (ODsample − ODblank/ODcontrol − ODblank) × 100. A sigmoid-shaped curve was fitted to the data, and the IC50 was calculated by fitting the Hill equation to the data with nonlinear regression (least-squares best fit modelling) using GraphPad Prism 4 (GraphPad Software Inc., San Diego, USA). […]

[2] = MTT cytotoxicity assay on Hep G2 cells; assay type: cell-based, human; conditions: human, DPTM 4.98 mM, read-out: cell viability
Description: as §2

CYP2C9 = target: T2, CYP2C9 (Homo sapiens, UniProt P11712); test: Cocktail CYP inhibition in human liver microsomes, CYP2C9 (tolbutamide); assay type: in vitro ADME; conditions: cocktail method, read-out: IC50 values, CYP2C9 in HLMs
T2 construct: containing 100 μL RLMs or HLMs; tissue Research Institute for Liver Diseases (Shanghai) Co., Ltd; host or cells: pooled human liver microsomes
Description: as §1

T2 sequence (P11712 whole entry): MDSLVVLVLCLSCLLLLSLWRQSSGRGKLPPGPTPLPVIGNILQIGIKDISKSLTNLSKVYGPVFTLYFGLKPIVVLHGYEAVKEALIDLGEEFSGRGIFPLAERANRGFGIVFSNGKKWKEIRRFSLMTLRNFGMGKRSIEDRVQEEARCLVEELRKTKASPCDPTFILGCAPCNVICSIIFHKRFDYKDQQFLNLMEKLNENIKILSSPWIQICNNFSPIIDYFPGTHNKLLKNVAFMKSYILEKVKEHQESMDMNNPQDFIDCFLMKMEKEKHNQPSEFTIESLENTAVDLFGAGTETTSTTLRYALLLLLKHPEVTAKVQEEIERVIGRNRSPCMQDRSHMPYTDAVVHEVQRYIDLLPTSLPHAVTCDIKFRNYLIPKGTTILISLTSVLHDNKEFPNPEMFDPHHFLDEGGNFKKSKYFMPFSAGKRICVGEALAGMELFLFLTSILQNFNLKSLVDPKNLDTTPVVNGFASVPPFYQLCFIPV
T1 sequence (P10633 whole entry): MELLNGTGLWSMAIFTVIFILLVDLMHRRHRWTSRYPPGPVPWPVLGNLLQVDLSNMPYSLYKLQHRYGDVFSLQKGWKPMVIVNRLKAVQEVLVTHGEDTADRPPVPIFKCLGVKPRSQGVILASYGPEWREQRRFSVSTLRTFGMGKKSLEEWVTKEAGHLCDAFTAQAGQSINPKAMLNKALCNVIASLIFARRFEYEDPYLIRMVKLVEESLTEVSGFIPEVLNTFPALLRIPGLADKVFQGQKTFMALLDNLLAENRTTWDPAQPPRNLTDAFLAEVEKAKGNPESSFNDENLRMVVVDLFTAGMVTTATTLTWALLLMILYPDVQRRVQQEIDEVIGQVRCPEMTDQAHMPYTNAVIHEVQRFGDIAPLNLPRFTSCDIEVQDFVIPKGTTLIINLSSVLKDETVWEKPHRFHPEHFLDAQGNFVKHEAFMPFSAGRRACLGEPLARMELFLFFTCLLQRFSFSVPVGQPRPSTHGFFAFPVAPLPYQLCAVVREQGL

C=CC1(C)CC(OC(=O)CSc2nc(N)cc(N)n2)C2(C)C(C)CCC3(CCC(=O)C32)C(C)C1O (stereo not drawn) [DPTM, 14-O-[(4,6-Diaminopyrimidine-2-yl)thioacetyl] mutilin]
half-life (t1/2) [1]: 1.7 to 1.9 h
IC50 (CYP2D1): > 0.1 mM
CYP2D6 mRNA expression versus control (CYP2D6 mRNA): significantly lowered
IC50 (Hep G2 cells): 10 ± 2 mM
viability at 24 h, 4.98 mM [2]: 79%
IC50 (CYP2C9): > 0.1 mM
